The structures appear in SMILES notation.

This assay has as its target T1, CDK2 (Homo sapiens, UniProt P24941).
T1 construct: High-Throughput Measurement of Cellular Endogenous CDK2; endogenous in cells; host or cells: OVCAR3
Description: Inhibition of CDK2: phospho-Rb (S807/811) HTRF measurement in OVCAR3 cells, 24 h. It counts as cell-based. Conditions: 24 h compound treatment, read-out: pRB_OVCAR3_24h. An outline of the steps: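 IC50 came from a four-parameter fit of DMSO-normalized TR-FRET ratios (665/620 nm) reporting phospho-Rb S807/811. Lysates were taken from OVCAR3 cultures treated 24 h with compound (0.3 to 10,000 nM) and incubated 4 h at room temperature with the antibody pair.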
On to `Cn1nc(N2CCC(=O)NC2=O)c2ccc(N3CCN(CC4CCN(c5cccc(S(=O)(=O)N6CCC(Nc7ncc(Cl)cn7)CC6)c5)CC4)CC3)cc21` [Example 52, 1-(6-(4-((1-(3-((4-((5-chloropyrimidin-2-yl)amino)piperidin-1-yl)sulfonyl)phenyl)-piperidin-4-yl)methyl)piperazin-1-yl)-1-methyl-1H-indazol-3-yl)dihydropyrimidine-2,4(1H,3H)-dione], for which the IC50 was 500 to 2500 nM. The result for `Cn1nc(N2CCC(=O)NC2=O)c2ccc(C3CCN(Cc4cccc(S(=O)(=O)N5CCC(Nc6ncc(C(C)(F)F)cn6)CC5)c4)CC3)cc21` [Example 17, 1-(6-(1-(3-((4-((5-(1,1-difluoroethyl)-pyrimidin-2-yl)amino)piperidin-1-yl)sulfonyl)benzyl)piperidin-4-yl)-1-methyl-1H-indazol-3-yl)dihydropyrimidine-2,4(1H,3H)-dione] reads over 2500 nM; that for `Cn1nc(N2CCC(=O)NC2=O)c2ccc(C3CCN(Cc4cccc(S(=O)(=O)N5CC6(CC(Nc7ncc(C(F)(F)F)cn7)C6)C5)c4)CC3)cc21` [Example 146, 1-(1-methyl-6-(1-(3-((6-((5-(trifluoro-methyl)pyrimidin-2-yl)amino)-2-azaspiro[3.3]heptan-2-yl)sulfonyl)benzyl)-piperidin-4-yl)-1H-indazol-3-yl)dihydropyrimidine-2,4(1H,3H)-dione], over 2500 nM. With `Cn1nc(N2CCC(=O)NC2=O)c2ccc(C3CCN(Cc4cccc(S(=O)(=O)[C@H]5CC[C@H](Nc6ncc(C(F)(F)F)cn6)CC5)c4)CC3)cc21` [Example 10, 1-(1-methyl-6-(1-(3-(((1r,4r)-4-((5-(trifluoromethyl)pyrimidin-2-yl)amino)-cyclohexyl)sulfonyl)benzyl)piperidin-4-yl)-1H-indazol-3-yl)dihydropyrimidine-2,4(1H,3H)-dione] the figure was 500 to 2500 nM; with `Cn1nc(N2CCC(=O)NC2=O)c2ccc(C#CCN3CCN(c4cccc(S(=O)(=O)N5CCC(Nc6ncc(C(F)(F)F)cn6)CC5)c4)CC3)cc21` [Example 230, 1-(1-methyl-6-(3-(4-(3-((4-((5-(trifluoromethyl)pyrimidin-2-yl)amino)piperidin-1-yl)sulfonyl)phenyl)piperazin-1-yl)prop-1-yn-1-yl)-1H-indazol-3-yl)dihydropyrimidine-2,4(1H,3H)-dione], 500 to 2500 nM; with `Cn1nc(N2CCC(=O)NC2=O)c2ccc(C3CCN(CC4CCN(c5ccc(F)c(S(=O)(=O)N6CCC(Nc7ncc(Cl)cn7)CC6)c5)CC4)CC3)cc21` [Example 189, 1-(6-(1-((1-(3-((4-((5-chloropyrimidin-2-yl)amino)piperidin-1-yl)sulfonyl)-4-fluorophenyl)piperidin-4-yl)methyl)piperidin-4-yl)-1-methyl-1H-indazol-3-yl)dihydropyrimidine-2,4(1H,3H)-dione], over 2500 nM. `Cn1nc(N2CCC(=O)NC2=O)c2ccc(C3CCN(CC4CCN(S(=O)(=O)[C@H]5CC[C@H](Nc6ncc(C(F)(F)F)cn6)CC5)CC4)CC3)cc21` [Example 20, 1-(1-methyl-6-(1-((1-(((1r,4r)-4-((5-(trifluoromethyl)pyrimidin-2-yl)amino)-cyclohexyl)sulfonyl)piperidin-4-yl)methyl)-piperidin-4-yl)-1H-indazol-3-yl)-dihydropyrimidine-2,4(1H,3H)-dione]: the IC50 is 500 to 2500 nM. The result for `Cn1nc(N2CCC(=O)NC2=O)c2ccc(C3CCN(CC4CN(c5cccc(S(=O)(=O)N6CCC(Nc7ncc(Cl)cn7)CC6)c5)C4)CC3)cc21` [Example 129, 1-(6-(1-((1-(3-((4-((5-chloropyrimidin-2-yl)amino)piperidin-1-yl)sulfonyl)phenyl)-azetidin-3-yl)methyl)piperidin-4-yl)-1-methyl-1H-indazol-3-yl)dihydropyrimidine-2,4(1H,3H)-dione] reads 1 to 100 nM; that for `Cn1c(=O)n(C2CCC(=O)NC2=O)c2cc(C3CCN(CC4CCN(c5cccc(S(=O)(=O)N6CCC(Nc7ncc(C(F)(F)F)cn7)CC6)c5)CC4)CC3)ccc21` (stereo not drawn) [Example 167, 3-(3-methyl-2-oxo-6-(1-((1-(3-((4-((5-(trifluoromethyl)pyrimidin-2-yl)amino)piperidin-1-yl)sulfonyl)phenyl)piperidin-4-yl)methyl)piperidin-4-yl)-2,3-dihydro-1H-benzo[d]imidazol-1-yl)piperidine-2,6-dione], 500 to 2500 nM; that for `O=C1CCC(n2c(=O)n(C3CCN(CC4CCN(c5cccc(S(=O)(=O)N6CCC(Nc7ncc(C(F)(F)F)cn7)CC6)c5)CC4)CC3)c3ccccc32)C(=O)N1` (stereo not drawn) [Example 171, 3-(2-oxo-3-(1-((1-(3-((4-((5-(trifluoromethyl)pyrimidin-2-yl)amino)piperidin-1-yl)sulfonyl)phenyl)piperidin-4-yl)methyl)piperidin-4-yl)-2,3-dihydro-1H-benzo[d]imidazol-1-yl)piperidine-2,6-dione], 100 to 500 nM. The result for `Cn1nc(N2CCC(=O)NC2=O)c2ccc(C3CCN(Cc4ccc(C5CCN(S(=O)(=O)N6CCC(Nc7ncc(Cl)cn7)CC6)CC5)cc4)CC3)cc21` [Example 139, 1-(6-(1-(4-(1-((4-((5-chloropyrimidin-2-yl)amino)piperidin-1-yl)sulfonyl)piperidin-4-yl)benzyl)piperidin-4-yl)-1-methyl-1H-indazol-3-yl)dihydropyrimidine-2,4(1H,3H)-dione] reads over 2500 nM; that for `Cn1c(=O)n(C2CCC(=O)NC2=O)c2cccc(C3CCN(CC4CCN(c5cc(C(F)(F)F)cc(S(=O)(=O)N6CCC(Nc7ncc(OC(F)F)cn7)CC6)c5)CC4)CC3)c21` (stereo not drawn) [Example 176, 3-(4-(1-((1-(3-((4-((5-(difluoromethoxy)pyrimidin-2-yl)amino)piperidin-1-yl)sulfonyl)-5-(trifluoromethyl)phenyl)piperidin-4-yl)methyl)piperidin-4-yl)-3-methyl-2-oxo-2,3-dihydro-1H-benzo[d]imidazol-1-yl)piperidine-2,6-dione], 500 to 2500 nM.

The values are drawn from US20260167623A1 (NIKANG THERAPEUTICS, INC., priority 2022, published 2026).
